From US20230159587A1, “PHARMACEUTICAL COMPOSITION FOR PREVENTING OR TREATING CANCER” (L-BASE CO., LTD., priority 2021, published 2023)
Residues, ends and D or L forms follow the SMILES beside them. No end group written: not given here. *: point of attachment. Benzoyl(3-Ph) = O=C(c1cccc(-c2ccccc2)c1)*; Benzoyl(4-Ph) = O=C(c1ccc(-c2ccccc2)cc1)*; Benzoyl(2-Ph) = O=C(c1ccccc1-c1ccccc1)*; Benzoyl(4-OMe) = COc1ccc(C(=O)*)cc1; 2Naphthoyl = O=C(c1ccc2ccccc2c1)*; Bz = O=C(c1ccccc1)*

Assays:
[1] = system: lung cancer cell line H1299; experiment: CTG assay, cell viability suppression in lung cancer cell line H1299; format: cell-based; conditions: H1299, 100 μM, 48 hours
Experimental: (§1) After 48 hours, a CellTiter-Glo® (Promega Co., USA) reagent was mixed in the same amount as the cell culture medium and allowed to react in an orbital shaker for 2 minutes. After reaction at room temperature for 10 minutes, the luminescence signal was measured using a luminometer (GloMax®, Promega).

[2] = system: breast cancer cell line HCC1937; experiment: MTT assay, proliferation suppression in breast cancer cell line HCC1937; format: cell-based; conditions: HCC1937, 100 μM, 72 hours
Experimental: (§2) After 72 hours, 10 μl of a CellTiter-96® (Promega Co., USA) reagent was added to each well and allowed to react at 5% CO2 and 37° C. After 3 hours, absorbance was measured at 490 nm using a spectrophotometer (SPECTROstar^Nano, BMG).
HCC1937 was used as the breast cancer cell line.
The HCC1937 cell line was treated with Ac-[…], 3-PhPh-[…], 4-MeOPh-[…], 2-PhPh-[…], Ph-[…], and Naphthyl-[…] at a concentration of 100 μM, respectively, and cell proliferation suppression effects were compared after 72 hours.

[3] = system: blood cancer cell line Jurkat clone E6-1; experiment: MTT assay, proliferation suppression in blood cancer cell line Jurkat clone E6-1; format: cell-based; conditions: Jurkat clone E6-1, 10 μM, 48 hours
Experimental: as §2
As the blood cancer cell line, Jurkat clone E6-1 was used.
Jurkat clone E6-1 was treated with 4-PhPh-[…], Ac-[…], 3-PhPh-[…], 4-MeOPh-[…], 2-PhPh-[…], Ph-[…], and Naphthyl-[…] at a concentration of 10 μM, respectively, and cell proliferation suppression effects were compared after 48 hours.

[4] = system: pancreatic cancer cell line CFPAC-1; experiment: MTT assay, cell viability suppression in pancreatic cancer cell line CFPAC-1; format: cell-based; conditions: CFPAC-1, 10 μM, 72 hours
Experimental: as §2

[5] = system: colorectal cancer cell line HT29; experiment: Cell proliferation suppression in colorectal cancer cell line HT29; format: cell-based; conditions: HT29, 50 μM, 72 hours
Experimental: as §1, §2

[6] = system: lung cancer cell line H820 tumors; experiment: Tumor growth suppression, nude mice inoculated with lung cancer cell line H820; format: in vivo; conditions: H820 in nude mice, 10 mpk, tail vein, 5 times at 3-day intervals and 5 times at 2-day intervals
Experimental: 200 μl of H820 cells were inoculated once by subcutaneous injection into the flanks of mice at a concentration of 5×10^6 cells/mouse at 1:1 with Matrigel. After it was confirmed that the volume of a tumor mass formed after the inoculation reached 70 to 130 mm^3, random group separation was performed. […]

[7] = system: CT26 cells induced to express CAGE gene; experiment: Tumor growth suppression, mice inoculated with CT26 cells induced to express CAGE gene; format: in vivo; conditions: CT26 expressing CAGE, 10 mpk tail vein, 7 times at 2-day intervals; for tumor growth suppression compared to the AQTGTGKT administration group: day 14; for tumor volume on day 14 (average): day after 7th administration
Experimental: (§3) 200 μl of CT26 cells, which were induced to express CAGE gene, were inoculated once by subcutaneous injection into the flanks of mice at a concentration of 1×10^6 cells/mouse. After it was confirmed that the volume of a tumor mass formed after the inoculation reached 70 mm^3, random group separation was performed. A test material was injected to the tail vein 7 times at 2-day intervals at a concentration of 10 mpk, and the start date of administration was set as day 1. The tumor volume was calculated twice a week by measuring the width and length and at the same time, the mouse body weight was measured.

in vitro = conditions: human
[8] = system: breast cancer cell line HCC1806 tumors; experiment: Tumor growth suppression, mice inoculated with breast cancer cell line HCC1806; format: in vivo, immunodeficient mice; conditions: HCC1806, 10 mpk tail vein, 7 times at 2-day intervals; for tumor volume on day 15 (average): 2 days after last administration; for tumor growth suppression compared to the tumor volume of the AQTGTGKT group: day 15
Experimental: as §3, with “a breast cancer cell line, HCC1806” for “CT26”, “cells,” for “cells, which were induced to express CAGE gene,”, “5×10^6” for “1×10^6”, “70 to 130” for “70”

[9] = Stability in human blood (residual amount over time)
[10] = system: lung cancer cell line H1975; experiment: CTG assay, cell viability suppression in lung cancer cell line H1975; format: cell-based; conditions: H1975, 10 μM, 72 hours
Experimental: as §1

[11] = system: lung cancer cell line H820; experiment: Cell viability suppression in lung cancer (papillary adenocarcinoma) cell line H820; format: cell-based; conditions: H820, 10 μM, 72 hours
Experimental: as §1, §2

[12] = system: H1975 lung cancer cells tumors; experiment: Tumor growth suppression, nude mice inoculated with H1975 lung cancer cells; format: in vivo; conditions: H1975 in nude mice, 10 mpk for 14 days
Experimental: 150 μl of H1975 cells were inoculated once by subcutaneous injection into the flanks of mice at a concentration of 4×10^6 cells/mouse. After it was confirmed that the volume of a tumor mass formed after the inoculation reached 70 to 130 mm^3, random group separation was performed. A test material was injected to the tail vein 5 times at 3-day intervals and 5 times at 2-day intervals.

[13] = system: breast cancer cell line MDA-MB-231; experiment: CTG assay, activity of breast cancer cells MDA-MB-231 (amount of ATP); format: cell-based; conditions: MDA-MB-231, 100 μM, 48 hours
Experimental: as §1

For `C[C@H](NC(=O)c1ccc2ccccc2c1)C(=O)N[C@@H](CCC(N)=O)C(=O)N[C@H](C(=O)NCC(=O)N[C@H](C(=O)NCC(=O)N[C@@H](CCCCN)C(=O)N[C@H](C(=O)O)[C@@H](C)O)[C@@H](C)O)[C@@H](C)O` (2Naphthoyl-AQTGTGKT-OH), which “cell viability suppression effect compared to the control (AQTGTGKT)” value [1] is on record?
The value was 14%.

What about the “suppression of proliferation of cells compared to the control (AQTGTGKT)” value [2] of the same compound?
Its value is about 9.5%.

What about the “suppression of proliferation of cells compared to the control (AQTGTGKT)” value [3] of the same compound?
Its value is about 10.4%.

What about the “cell viability suppression effect compared to the control (AQTGTGKT)” value [4] of the same compound?
The value was 3%.

And the “cell proliferation suppression effect compared to the control (AQTGTGKT)” value [5]?
The value was 58%.

And the “tumor growth suppression effect compared to the control (AQTGTGKT)” value [6]?
Its value is 26%.

What about the “tumor growth suppression compared to the AQTGTGKT administration group” value [7] of the same compound?
Its value is “about 62.04%”.

What about the “tumor volume on day 14 (average)” value [7] of the same compound?
The value was 880.35 mm^3.

What about the half-life at 10 μM (in vitro) of the same compound?
The half-life at 10 μM was 47 to 105 min.

With `C[C@H](NC(=O)c1ccccc1)C(=O)N[C@@H](CCC(N)=O)C(=O)N[C@H](C(=O)NCC(=O)N[C@H](C(=O)NCC(=O)N[C@@H](CCCCN)C(=O)N[C@H](C(=O)O)[C@@H](C)O)[C@@H](C)O)[C@@H](C)O` (Bz-AQTGTGKT-OH) as the compound, how does the “cell viability suppression effect compared to the control (AQTGTGKT)” value [1] read?
The value was 18%.

And the “suppression of proliferation of cells compared to the control (AQTGTGKT)” value [2]?
The value was about 13.6%.

What about the “suppression of proliferation of cells compared to the control (AQTGTGKT)” value [3] of the same compound?
Its value is about 10.2%.

What about the “cell viability suppression effect compared to the control (AQTGTGKT)” value [4] of the same compound?
Its value is 3%.

And the “cell proliferation suppression effect compared to the control (AQTGTGKT)” value [5]?
Its value is 40%.

And the “tumor growth suppression effect compared to the control (AQTGTGKT)” value [6]?
The value was 20%.

And the “tumor volume on day 15 (average)” value [8]?
Its value is 1133.80 mm^3.

And the “tumor growth suppression compared to the tumor volume of the AQTGTGKT group” value [8]?
The value was about 39.82%.

And the half-life at 10 μM [9]?
Its half-life at 10 μM is 47 to 105 min.

What does the source list for `C[C@H](NC(=O)c1ccccc1-c1ccccc1)C(=O)N[C@@H](CCC(N)=O)C(=O)N[C@H](C(=O)NCC(=O)N[C@H](C(=O)NCC(=O)N[C@@H](CCCCN)C(=O)N[C@H](C(=O)O)[C@@H](C)O)[C@@H](C)O)[C@@H](C)O` ({Benzoyl(2-Ph)}-AQTGTGKT-OH)?
cell viability suppression effect compared to the control (AQTGTGKT) [1]: 20%; cell viability suppression effect compared to the control (AQTGTGKT) [10]: 3%; suppression of proliferation of cells compared to the control (AQTGTGKT) [2]: ~15.9%; suppression of proliferation of cells compared to the control (AQTGTGKT) [3]: ~6.7%; cell proliferation suppression effect compared to the control (AQTGTGKT) [5]: 7%; tumor growth suppression effect compared to the control (AQTGTGKT) [6]: 27%; half-life at 10 μM (in vitro): 47 to 105 min

Which results are given for `C[C@H](NC(=O)c1cccc(-c2ccccc2)c1)C(=O)N[C@@H](CCC(N)=O)C(=O)N[C@H](C(=O)NCC(=O)N[C@H](C(=O)NCC(=O)N[C@@H](CCCCN)C(=O)N[C@H](C(=O)O)[C@@H](C)O)[C@@H](C)O)[C@@H](C)O` ({Benzoyl(3-Ph)}-AQTGTGKT-OH)?
cell viability suppression effect compared to the control (AQTGTGKT) [1]: 15%; cell viability suppression effect compared to the control (AQTGTGKT) [10]: 33%; cell viability suppression effect compared to the control (AQTGTGKT) [11]: about 12%; suppression of proliferation of cells compared to the control (AQTGTGKT) [2]: ~17.1%; suppression of proliferation of cells compared to the control (AQTGTGKT) [3]: ~6.4%; cell viability suppression effect compared to the control (AQTGTGKT) [4]: 2%; cell proliferation suppression effect compared to the control (AQTGTGKT) [5]: 59%; tumor growth suppression effect compared to the control (AQTGTGKT) [6]: about 16.5%; tumor growth reduction compared to the control (AQTGTGKT) [12]: about 16.5%; tumor volume on day 15 (average) [8]: 944.70 mm^3; tumor growth suppression compared to the tumor volume of the AQTGTGKT group [8]: about 49.86%; tumor growth suppression compared to the AQTGTGKT administration group [7]: about 65.79%; tumor volume on day 14 (average) [7]: 880.35 mm^3; half-life at 10 μM (in vitro): 47 to 105 min

With `COc1ccc(C(=O)N[C@@H](C)C(=O)N[C@@H](CCC(N)=O)C(=O)N[C@H](C(=O)NCC(=O)N[C@H](C(=O)NCC(=O)N[C@@H](CCCCN)C(=O)N[C@H](C(=O)O)[C@@H](C)O)[C@@H](C)O)[C@@H](C)O)cc1` ({Benzoyl(4-OMe)}-AQTGTGKT-OH) as the compound, how does the “cell viability suppression effect compared to the control (AQTGTGKT)” value [1] read?
The value was 12%.

And the “cell viability suppression effect compared to the control (AQTGTGKT)” value [10]?
Its value is 4%.

And the “cell viability suppression effect compared to the control (AQTGTGKT)” value [11]?
Its value is 10%.

What about the “suppression of proliferation of cells compared to the control (AQTGTGKT)” value [2] of the same compound?
The value was about 14.3%.

What about the “suppression of proliferation of cells compared to the control (AQTGTGKT)” value [3] of the same compound?
Its value is about 4%.

What about the “cell viability suppression effect compared to the control (AQTGTGKT)” value [4] of the same compound?
Its value is 6%.

What about the “cell proliferation suppression effect compared to the control (AQTGTGKT)” value [5] of the same compound?
Its value is 48%.

And the “tumor volume on day 15 (average)” value [8]?
Its value is 812.69 mm^3.

What about the “tumor growth suppression compared to the tumor volume of the AQTGTGKT group” value [8] of the same compound?
The value was about 56.86%.

And the half-life at 10 μM (in vitro)?
The half-life at 10 μM was 47 to 105 min.

With `C[C@H](NC(=O)c1ccc(-c2ccccc2)cc1)C(=O)N[C@@H](CCC(N)=O)C(=O)N[C@H](C(=O)NCC(=O)N[C@H](C(=O)NCC(=O)N[C@@H](CCCCN)C(=O)N[C@H](C(=O)O)[C@@H](C)O)[C@@H](C)O)[C@@H](C)O` ({Benzoyl(4-Ph)}-AQTGTGKT-OH) as the compound, how does the “cell viability suppression effect compared to the control (AQTGTGKT)” value [1] read?
The value was “about 10%”.

And the “reduction of activity of cells compared to the control (AQTGTGKT)” value [13]?
The value was “about 30%”.

What about the “suppression of proliferation of cells compared to the control (AQTGTGKT)” value [3] of the same compound?
Its value is “about 4.8%”.

What about the “cell viability suppression effect compared to the control (AQTGTGKT)” value [4] of the same compound?
The value was “about 12%”.

And the “cell proliferation suppression effect compared to the control (AQTGTGKT)” value [5]?
The value was “about 8%”.

And the half-life at 10 μM (in vitro)?
Its half-life at 10 μM is 47 to 105 min.

Which results are given for “AQTGTGKT [alanine-glutamine-threonine-glycine-threonine-glycine-lysine-threonine, reference compound]”?
tumor volume on day 15 (average) [8]: 1884.17 mm^3; tumor volume on day 14 (average) [7]: 2573.07 mm^3; half-life at 10 μM [9]: < 1 min

With Ac-AQTGTGKT as the compound, how does the “cell viability suppression effect compared to the control (AQTGTGKT)” value [1] read?
The value was 4.2%.

What about the “cell viability suppression effect compared to the control (AQTGTGKT)” value [10] of the same compound?
Its value is “about 16%”.

And the “suppression of proliferation of cells compared to the control (AQTGTGKT)” value [2]?
Its value is “about 11.1%”.

And the “suppression of proliferation of cells compared to the control (AQTGTGKT)” value [3]?
Its value is about 7.9%.

What about the “cell proliferation suppression effect compared to the control (AQTGTGKT)” value [5] of the same compound?
The value was 58%.
